Source: patent US7084155B2, “Chemokine receptor binding heterocyclic compounds” (AnorMED, priority 2000, dated 2006)

Tests used:
Type in all cases: cell-based
[1] = test system: SDF-1 induced Ca flux in SUP-T1 cells; test: Inhibition of chemokine (SDF-1) induced Ca flux measured on a FLIPR; conditions: Homo sapiens
Protocol: Inhibition of Chemokine Induced Ca Flux Measured on a FLIPR (Molecular Devices) Loading dye: Fluo-3, AM (Molecular Probes F-1241) is dissolved in anhydrous DMSO and stored frozen in aliquots. To increase the solubility of the dye in the loading medium, 10% (w/v) pluronic acid (Molecular Probes F-127) is added to the Fluo-3 stock solution immediately before use. HBSS+20 mM Hepes buffer+0.2% BSA, pH 7.4. HBSS 10× [(w/o phenol red and sodium bicarbonate (Gibco 14 065–049)]; Hepes buffer 1M (Gibco 15 630–056), BSA (Sigma A3675). The flux buffer is vacuum-filtered and stored refrigerated for a maximum of 5 days. Before use in the experiment, the buffer is warmed at 37° C. in a waterbath. The test compounds were diluted in flux buffer to the desired concentration and added to 4 wells of a black microplate (4 parallel measurements per compound). The following control wells were used: 100% response control (no inhibition), flux buffer was added; 100% inhibition control: chemokine was added at 5-times the concentration required to induce a Ca flux. The chemokines are diluted in flux buffer to concentrations that are 4-fold higher than the desired concentrations required for stimulation of the cells (i.e. 2.5 nM for SDF-1[…] and 0.6 nM for RANTES). The chemokines were added to untreated 96-well Sero well compound plates (International Medical, Sterilin code 611F96). In the negative control well's (baseline monitoring), flux buffer is added instead of chemokine. As a positive control to check for dye loading efficiency, 20 μM digitonin (final concentration) was also included. The agonist plate was incubated in the FLIPR (37° C.) for 15–30 min. Cell Loading Protocol for Measuring Inhibition of SDF-1[…] Induced Ca Flux in SUP-T1 Cells. SUP-T1 cells were centrifuged at room temperature (RT) and re-suspended in loading medium (RPMI-1640 containing 2% FBS and 4 μM Fluo-3, AM). The cells were incubate at room temperature for 45 min. then washed twice in flux buffer then incubated in flux buffer at room temperature for 10 min. The cells were centrifuged and re-suspended in flux buffer at a density of 3×10^6 cells per mL. A 100 uL aliquot of the cell suspension (3×10^5 cells) was added to each well of a black microplate (Costar 3603), which already contains 50 uL of a solution of the test compound (at concentrations that are 3-fold higher than the desired final compound concentrations). The microplate is then gently centrifuged at room temperature. Homogeneous spreading of the cells on the bottom of the microplate wells was then confirmed with a microscope and the microplate was incubated in the FLIPR (37° C.) for 10 min. prior to testing. Fluorescence Measurements as a Function of Time on the FLIPR The FLIPR settings (camera exposure time and laser power) are adjusted to obtain initial fluorescence values between 8,000 and 10,000 units. After monitoring a 20 second-baseline, the agonist (chemokine) (50 uL) is added by automatic pipettor with black pipette tips. Fluorescence is measured simultaneously in all wells of the microplate every 2 seconds (first 2 min) and thereafter every 6 seconds (additional 2 min). The average ca-flux measured in each set of 4 identical wells (one test compound) was calculated by the FLIPR software.

HIV-1 NL4.3 or IIIB = test: Inhibition of HIV-1 (NL4.3 or IIIB, CXCR4 using) replication in MT-4 cells, MTT viability; conditions: Human immunodeficiency virus 1, IIIB, MT4, concentration protecting 50% of virus-infected cells against viral cytopathicity
Protocol: Assay for Inhibition of HIV-1 (NL4.3) Replication in MT-4 Cells Inhibition of HIV-1 NL4.3 (or IIIB, CXCR4 using) replication assays were performed as previously described (Bridger et al. J. Med. Chem. 1999, 42, 3971-3981; De […] et al. Proc. Natl. Acad. Sci, 1992, 89, 5286-5290; De […] et al. Antimicrob. Agents Chemother. 1994, 38, 668-674; Bridger et al. J. Med. Chem. 1995, 38, 366-378; Schols et al. J. Exp. Med., 1997, 186, 1383-1388). Anti-HIV activity and cytotoxicity measurements were carried out in parallel. They were based on the viability of MT-4 cells that had been infected with HIV in the presence of various concentrations of the test compounds. After the MT-4 cells were allowed to proliferate for 5 days, the number of viable cells was quantified by a tetrazolium-based colorimetric 3-(4,5-dimethylthiazol-2-yl)-2,5-diphenyltetrazolium bromide (MTT) procedure in 96-well microtrays. In all of these assays, viral input (viral multiplicity of infection, MOI) was 0.01, or 100 times the 50% cell culture infective dose (CCID50). The EC50 was defined as the concentration required to protect 50% of the virus-infected cells against viral cytopathicity.

HIV-1 BaL = test: Inhibition of HIV-1 BaL (CCR5 using) replication in PHA-stimulated PBMC's, viral p24 antigen expression; conditions: Human immunodeficiency virus 1, BAL

Row | Compound | EC50 (HIV-1 NL4.3 or IIIB) | EC50 (HIV-1 BaL) | inhibition at 20 µg/mL [1]
1 | c1cnc2c(c1)CCCC2N(Cc1ccc(CNCc2cc3ccccc3cn2)cc1)Cc1nc2ccccc2[nH]1 (stereo not drawn) [Example 63, N-(3-isoquinolinylmethyl)-N′-(1H-benzimidazol-2-ylmethyl)-N′-(5,6,7,8-tetrahydro-8-quinolinyl)-1,4-benzenedimethanamine] | < 20 µg/mL | < 20 µg/mL | > 20%
2 | CC(C)(C)c1cnc(CN(Cc2ccc(CNCc3ccccn3)cc2)C2CCCc3cccnc32)[nH]1 (stereo not drawn) [Example 29, N-(2-Pyridinylmethyl)-N′-(5-tert-butyl-1H-imidazol-2-ylmethyl)-N′-(5,6,7,8-tetrahydro-8-quinolinyl)-1,4-benzenedimethanamine] | < 20 µg/mL | < 20 µg/mL | > 20%
3 | c1ccc(CNCc2ccc(CN(Cc3ncc(-c4ccc5c(c4)CCCC5)[nH]3)C3CCCc4cccnc43)cc2)nc1 (stereo not drawn) [Example 32, N-(2-Pyridinylmethyl)-N′-[5-(5,6,7,8-tetrahydronaphthalen-2-yl)-1H-imidazol-2-ylmethyl]-N′-(5,6,7,8-tetrahydro-8-quinolinyl)-1,4-benzenedimethanamine] | < 20 µg/mL | < 20 µg/mL | –
4 | COc1c(Br)cccc1-c1cnc(CN(Cc2ccc(CNCc3ccccn3)cc2)C2CCCc3cccnc32)[nH]1 (stereo not drawn) [Example 33, N-(2-Pyridinylmethyl)-N′-[5-(3-Bromo-2-methoxy-phenyl)-1H-imidazol-2-ylmethyl]-N′-(5,6,7,8-tetrahydro-8-quinolinyl)-1,4-benzenedimethanamine] | < 20 µg/mL | < 20 µg/mL | –
5 | CC1(N(Cc2ccc(CNCc3ccccn3)cc2)Cc2nc3ccccc3[nH]2)CCCc2cccnc21 (stereo not drawn) [Example 42, N-(2-pyridinylmethyl)-N′-(1H-benzimidazol-2-ylmethyl)-N′-(8-methyl-5,6,7,8-tetrahydro-8-quinolinyl)-1,4-benzenedimethanamine] | < 20 µg/mL | – | > 20%
6 | c1ccc(CNCc2ccc(CN(CCn3cnc4ccccc43)C3CCCc4cccnc43)cc2)nc1 (stereo not drawn) [Example 37, N-(2-pyridinylmethyl)-N′-[2-(benzimidazol-1-yl)eth-1-yl]-N′-(5,6,7,8-tetrahydro-8-quinolinyl)-1,4-benzenedimethanamine] | – | < 20 µg/mL | –
7 | COc1ccnc2c1CCCC2N(Cc1ccc(CNCc2ccccn2)cc1)Cc1nc2ccccc2[nH]1 (stereo not drawn) [Example 44, N-(2-pyridinylmethyl)-N′-[1H-benzimidazol-2-ylmethyl]-N′-(4-methoxy-5,6,7,8-tetrahydro-8-quinolinyl)-1,4-benzenedimethanamine] | < 20 µg/mL | – | > 20%
8 | c1ccc(-c2ccc(-c3cnc(CN(Cc4ccc(CNCc5ccccn5)cc4)C4CCCc5cccnc54)[nH]3)cc2)cc1 (stereo not drawn) [Example 31, N-(2-Pyridinylmethyl)-N′-(4-(4-biphenyl)-1H-imidazol-2-ylmethyl)-N′-(5,6,7,8-tetrahydro-8-quinolinyl)-1,4-benzenedimethanamine] | < 20 µg/mL | < 20 µg/mL | –
9 | Brc1cccc(CNCc2ccc(CN(Cc3nc4ccccc4[nH]3)C3CCCc4cccnc43)cc2)n1 (stereo not drawn) [Example 57, N-(6-bromo-2-pyridinylmethyl)-N′-(1H-benzimidazol-2-ylmethyl)-N′-(5,6,7,8-tetrahydro-8-quinolinyl)-1,4-benzenedimethanamine] | < 20 µg/mL | – | > 20%
10 | CCCOc1cccnc1CNCc1ccc(CN(Cc2nc3ccccc3[nH]2)C2CCCc3cccnc32)cc1 (stereo not drawn) [Example 59, N-(3-propoxy-2-pyridinylmethyl)-N′-(1H-benzimidazol-2-ylmethyl)-N′-(5,6,7,8-tetrahydro-8-quinolinyl)-1,4-benzenedimethanamine] | < 20 µg/mL | – | > 20%

The next lines start with results.

Row | EC50 (HIV-1 NL4.3 or IIIB) | EC50 (HIV-1 BaL) | Compound | inhibition at 20 µg/mL [1]
11 | < 20 µg/mL | < 20 µg/mL | Cc1ccc2nc(CN(Cc3ccc(CNCc4ccccn4)cc3)C3CCCc4cccnc43)oc2c1 (stereo not drawn) [Example 17, N-(2-pyridinylmethyl)-N′-(6-methylbenzoxazol-2-ylmethyl)-N′-(5,6,7,8-tetrahydro-8-quinolinyl)-1,4-benzenedimethanamine] | –
12 | < 20 µg/mL | – | COC(=O)c1ccc2[nH]c(CN(Cc3ccc(CNCc4ccccn4)cc3)C3CCCc4cccnc43)nc2c1 (stereo not drawn) [Example 6, N-(2-pyridinylmethyl)-N′-(5-carboxymethyl-1-H-benzimidazol-2-ylmethyl)-N′-(5,6,7,8-tetrahydro-8-quinolinyl)-1,4-benzenedimethanamine] | > 20%
13 | < 20 µg/mL | – | Cc1ccc2nc(CN(Cc3ccc(CNCc4ccccn4)cc3)C3CCCc4cccnc43)[nH]c2c1C (stereo not drawn) [Example 4, N-(2-pyridinylmethyl)-N′-(4,5-dimethyl-1-H-benzimidazol-2-ylmethyl)-N′-(5,6,7,8-tetrahydro-8-quinolinyl)-1,4-benzenedimethanamine] | > 20%
14 | < 20 µg/mL | < 20 µg/mL | c1ccc(CNCc2ccc(CN(Cc3nc4ccccc4o3)C3CCCc4cccnc43)cc2)nc1 (stereo not drawn) [Example 8, N-(2-pyridinylmethyl)-N′-(benzoxazol-2-ylmethyl)-N′-(5,6,7,8-tetrahydro-8-quinolinyl)-1,4-benzenedimethanamine] | –
15 | < 20 µg/mL | – | COc1ccc2nc(CN(Cc3ccc(CNCc4ccccn4)cc3)C3CCCc4cccnc43)[nH]c2c1 (stereo not drawn) [Example 12, N-(2-pyridinylmethyl)-N′-[5-methoxy-1H-benzimidazol-2-ylmethyl]-N′-(5,6,7,8-tetrahydro-8-quinolinyl)-1,4-benzenedimethanamine] | > 20%
16 | < 20 µg/mL | < 20 µg/mL | c1ccc(CNCc2ccc(CN(Cc3cc4ccccc4[nH]3)C3CCCc4cccnc43)cc2)nc1 (stereo not drawn) [Example 19, N-(2-pyridinylmethyl)-N′-(indol-2-ylmethyl)-N′-(5,6,7,8-tetrahydro-8-quinolinyl)-1,4-benzenedimethanamine] | –
17 | < 20 µg/mL | – | Oc1cccc2[nH]c(CN(Cc3ccc(CNCc4ccccn4)cc3)C3CCCc4cccnc43)nc12 (stereo not drawn) [Example 7, N-(2-pyridinylmethyl)-N′-(4-hydroxy-1-H-benzimidazol-2-ylmethyl)-N′-(5,6,7,8-tetrahydro-8-quinolinyl)-1,4-benzenedimethanamine] | > 20%
18 | < 20 µg/mL | – | Clc1ccc2[nH]c(CN(Cc3ccc(CNCc4ccccn4)cc3)C3CCCc4cccnc43)nc2c1 (stereo not drawn) [Example 11, N-(2-pyridinylmethyl)-N′-[5-chloro-1H-benzimidazol-2-ylmethyl]-N′-(5,6,7,8-tetrahydro-8-quinolinyl)-1,4-benzenedimethanamine] | > 20%
19 | < 20 µg/mL | – | c1ccc(CNCc2ccc(CN(Cc3nc4cccnc4[nH]3)C3CCCc4cccnc43)cc2)nc1 (stereo not drawn) [Example 10, N-(2-pyridinylmethyl)-N′-[(1H)-4-azabenzimidazol-2-ylmethyl]-N′-(5,6,7,8-tetrahydro-8-quinolinyl)-1,4-benzenedimethanamine] | > 20%
